Source: PubChem BioAssay (NCI)
Several values for one entry are separate records, joined by “and”; a condition that tells them apart may be missing. Identical values can stand only once.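 Dose response: 5 concentrations. Exposure: 48 h. Format: 96-well plates. Endpoint: linear interpolation; highest concentration if not reached. Here, GI50 denotes the concentration required for 50% inhibition of growth. TGI: total growth inhibition.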

How the values were obtained:
Assay in all cases: inhibition of tumour cell growth, NCI panel, 48 h
786-0 renal = tested on: 786-0 renal
A549 NSCLC = tested on: A549 NSCLC
CAKI-1 renal = tested on: CAKI-1 renal
CCRF-CEM leukemia = tested on: CCRF-CEM leukemia
KM12 colon = tested on: KM12 colon
M14 melanoma = tested on: M14 melanoma
RPMI-8226 leukemia = tested on: RPMI-8226 leukemia
SK-OV-3 ovarian = tested on: SK-OV-3 ovarian
TK-10 renal = tested on: TK-10 renal
NCI/ADR-RES ovarian = tested on: NCI/ADR-RES ovarian

Row | SMILES | TGI (786-0 renal) [µM] | TGI (A549 NSCLC) [µM] | TGI (CAKI-1 renal) [µM] | TGI (CCRF-CEM leukemia) | TGI (KM12 colon) [µM] | TGI (M14 melanoma) [µM] | TGI (RPMI-8226 leukemia) [µM] | TGI (SK-OV-3 ovarian) [µM] | TGI (TK-10 renal) [µM] | GI50 (786-0 renal) [µM] | GI50 (A549 NSCLC) [µM] | GI50 (CAKI-1 renal) [µM] | GI50 (CCRF-CEM leukemia) [µM] | GI50 (KM12 colon) [µM] | GI50 (M14 melanoma) [µM] | GI50 (NCI/ADR-RES ovarian) [µM] | TGI (NCI/ADR-RES ovarian) [µM] | GI50 (SK-OV-3 ovarian) [µM] | GI50 (TK-10 renal) [µM] | GI50 (RPMI-8226 leukemia) [µM]
1 | COC(=O)C1C=CCC2CCCCC21N1CCCC1 (stereo not drawn) | > 100 | > 100 | > 100 | > 100 µM | > 100 | > 100 | > 100 | > 100 | > 100 |  |  |  |  |  |  |  |  |  |  | 
2 | COc1ccc(-c2ccc(CC(=O)O)cc2)cc1OC | > 100 | > 100 | > 100 | > 100 µM | > 100 | > 100 | > 100 | > 100 | > 100 |  |  |  |  |  |  |  |  |  |  | 
3 | O=C1CC23CCCCCCCCCCC2(C1)CC(=O)C3 (stereo not drawn) | > 100 | > 100 |  | 44.4 µM | 45 | 44.4 | 45.4 | 65.2 | > 100 |  |  |  |  |  |  |  |  |  |  | 
4 | Cn1c(=O)oc2cc(C3CCC(=O)N3Cc3csc(-c4ccccc4)n3)ccc21 (stereo not drawn) | > 100 | > 100 | > 100 | > 100 µM | > 100 | > 100 | > 100 | > 100 | > 100 |  |  |  |  |  |  |  |  |  |  | 
5 | N/N=C(/Cc1ccccc1)NNO | > 100 | > 100 | > 100 | > 100 µM | 34.9 | > 100 |  |  | > 100 |  |  |  |  |  |  |  |  |  |  | 
6 | CC(=O)N1[C@H](C(=O)O)CS[C@H]1c1ccc(F)cc1 | > 100 | > 100 | > 100 | > 100 µM |  | > 100 |  |  | > 100 |  |  |  |  |  |  |  |  |  |  | 
7 | O=C(CC1=Nc2nnc(CCCCCCCc3nnc4n3C(=O)C(CC(=O)c3ccc5ccccc5c3)=N4)n2C1=O)c1ccc2ccccc2c1 | > 100 | > 100 | > 100 | > 100 µM | > 100 | > 100 | > 100 | > 100 | > 100 |  |  |  |  |  |  |  |  |  |  | 
8 | CN(C)C(=S)/N=c1\ss/c(=N\C(=S)N(C)C)n1-c1cccc(Cl)c1 | > 100 | > 100 | > 100 | > 100 µM | > 100 | > 100 | > 100 |  | > 100 |  |  |  |  |  |  |  |  |  |  | 
9 | CC(C)C[C@@H](N)[C@@H](O)C(=O)N[C@H](C(=O)N[C@H](C(=O)N[C@@H](CC(=O)O)C(=O)O)C(C)C)C(C)C | > 20 | > 20 | > 20 | > 20 µM | > 20 | > 20 |  | > 20 | > 20 | > 20 | > 20 | > 20 | > 20 | > 20 | > 20 | > 20 | > 20 | > 20 | > 20 | 
10 | CN1CCCC2[C@@H]3CCC4c5nonc5CC[C@]4(C)C3CC[C@@]21C (stereo partly drawn) | > 100 | > 100 | > 100 |  | > 100 |  | > 100 | > 100 | > 100 |  |  |  |  |  |  |  |  |  |  | 
11 | Cc1ccc(C2=CC(=O)c3ccccc3C2=O)n1-c1ccccc1 | > 100 | > 100 |  | 84.5 µM | > 100 | > 100 | > 100 | > 100 | > 100 |  |  |  |  |  |  |  |  |  |  | 
12 | [N-]=[N+]=CC(=O)CCC(N)C(=O)O (stereo not drawn) | > 250 | > 250 | 84.5 | 54.6 µM and 157 µM | > 250 | > 250 |  | 34.3 | 244 | 7.17 | 2.78 | 10.9 | 5.82 | 3.14 | 10.6 |  | > 245 |  | 35.6 | 
13 | C1=CC(=P(c2ccccc2)(c2ccccc2)c2ccccc2)C=C1 | 28.8 | 79.7 | 32.3 | 13.4 µM | 24.4 | 24.3 | 11 | 35.3 | 50.9 |  |  |  |  |  |  |  |  |  |  | 
14 | COc1cc2c(cc1C)NC(=O)/C2=C/c1ccnc2ccccc12 | > 50 | > 50 | > 50 |  | > 50 | > 50 | > 50 | > 50 | > 50 | 35.3 | 20.8 | 16.2 |  | 26.2 | > 50 | 15.6 | 41.2 | 12.6 | 35.8 | 19.7
15 | O=c1c2cccnc2ncn1CCCN1CCCCC1 | > 100 | > 100 | > 100 | > 100 µM | > 100 | > 100 |  | > 100 | > 100 |  |  |  |  |  |  |  |  |  |  | 
16 | Cc1n[nH]c2ccccc2c1=O | > 100 | > 100 | > 100 |  | > 100 | > 100 | > 100 | > 100 | > 100 |  |  |  |  |  |  |  | > 100 |  |  | 
17 | CCC[CH2][Sn-]([CH2]CCC)([CH2]CCC)[O]C(=O)C(C)C | 0.228 | 0.267 | 0.279 |  | 0.145 | 0.23 | 0.366 | 0.293 | 0.272 | 0.109 | 0.13 | 0.122 |  | 0.0347 | 0.109 | 0.154 | 0.46 | 0.151 | 0.141 | 0.109
18 | Cc1cccc(N2C(=O)/C(=C/C(Cl)=C/c3ccc([N+](=O)[O-])cc3)SC2=S)c1C | 4.68 | > 100 |  | > 89.5 µM |  | 6.86 | 2.04 | > 100 | > 100 | 2.07 | 1.66 |  | 0.741 |  | 2.39 | 2.97 | > 100 | 4.93 | 3.17 | 0.439
19 | COc1cc(O)ccc1C(=S)SC | > 100 | > 100 | > 100 |  | > 100 | > 100 | 55.6 | > 100 | > 100 |  |  |  |  |  |  |  | > 100 |  |  | 
20 | O=C(c1ccccc1)C1N=NN(Cc2ccccc2[N+](=O)[O-])C1C(=O)c1ccccc1 (stereo not drawn) | > 100 | > 100 | > 100 | > 100 µM | > 100 | > 100 | > 100 | > 100 | > 100 |  |  |  |  |  |  |  |  |  |  | 
21 | COc1cc(C2CC(c3ccc(Nc4nc(NCCO)nc(NCCO)n4)cc3)=NN2c2cc(Cl)cc(Cl)c2)cc(OC)c1OC (stereo not drawn) | 2.59 | 3.22 |  | 10.7 µM | 3.21 | 3.24 | 6.28 | 23.1 | 4.45 | 1.29 | 1.38 |  | 2.53 | 1.53 | 1.58 | 3.37 | 12.8 | 11.1 | 2.01 | 1.15
